Data on 25 molecules can be found in EPA's ToxValDB 9.5.

“And” between values parts separate entries of the source, which are not always exact repeats. Identical values can stand only once.

One data set has as its system Oncorhynchus mykiss. Particulars: acute; duration: 96 hours; mortality.
In the next data set the test system is Rattus norvegicus. The note with it: for LD50: acute, mortality.
Another data set deals with Colinus virginianus. The note with it: mortality.
Setting [1] is: reproduction developmental, clinical signs.
Where [2] appears, read: subchronic, duration: 90 days, oral, diet.

With `C=CCc1ccc(O)c(OC)c1` [Eugenol], the LC50 in the data set on Oncorhynchus mykiss is 5.6 µg/mL and > 10 µg/mL. Also, the NOAEL stood at 100 mg/kg-day in the data set with Oryctolagus sp. (setting [1]); 300 mg/kg-day with Rattus norvegicus (chronic, duration: 2 years, body weight); 100 mg/kg-day in the data set on Rattus norvegicus (setting [1]). Besides, the LD50 in the data set on Rattus norvegicus (oral) was found to be 1930 mg/kg. In the data set on Rattus norvegicus (developmental, development), the NOEL is 250 mg/kg-day. As for `COC(=O)[C@H](Cc1ccccc1)NC(=O)[C@H](CC(=O)O)NCCC(C)(C)C` [Neotame], the no observed adverse effect level (NOAEL) in the data set with Canidae (chronic, duration: 52 weeks, oral, diet, M/F, Beagle, clinical chemistry) is 200 mg/kg-day. With `O=C(O)c1cn[nH]c1C(F)F` [1H-3-Difluoromethylpyrazole-4-carboxylic acid], in the data set with Oryctolagus sp. (reproduction developmental, body weight), the NOAEL worked out at 300 mg/kg-day. In the data set with Oryctolagus sp. (developmental, development), `O=C(O)C(O)Cn1cncn1` (stereo not drawn) [Triazole lactic acid] gave an NOAEL of 30 mg/kg-day. As for `NC(N)=NCC(=O)O` [N-(Aminoiminomethyl)glycine], in the data set on Gallus gallus (subchronic, duration: 35 days, oral, diet, hematological), the LEL was 1500 mg/kg-day. Turning to `CCCSP(=O)(OCC)SCCC` [Ethoprop], the NOEL turned out to be 0.088 mg/kg-day in the data set with Colinus virginianus (reproduction developmental) and 7.3 mg/kg-day in the data set with Rattus norvegicus (chronic). Take `[Ca+2].[I-].[I-].[O-2].[O-2].[O-2].[O-2].[O-2].[O-2]` [Iodic acid (HIO3), calcium salt (2:1)]: the LEL in the data set on Gallus gallus (repeat dose other, no effects) was 5 mg/kg-day; with Gallus gallus (subchronic, duration: 35 days, oral, diet, M, no effects), 5 mg/kg-day; with Sus scrofa (repeat dose other, Not specified, no effects), 8 mg/kg-day; with Sus scrofa (short-term, Not specified, no effects), 8 mg/kg-day. For `O=C([O-])c1ccccc1.[Na+]` [Sodium benzoate], the LEL in the data set on Sus scrofa (repeat dose other, oral, diet, M/F, Not specified, no effects) turned out to be 36000 mg/kg-day; in the data set with Sus scrofa (subchronic, duration: 36 days, oral, diet, Duroc, body weight) it was 36000 mg/kg-day; in the data set on Sus scrofa (subchronic, duration: 42 days, oral, diet, Not specified, body weight) it was 36000 mg/kg-day. As for `C/C=C/C=C\CC/C=C/C(=O)NCC(C)C` [(E,Z,E)-N-(2-Methylpropyl)-2,6,8-decatrienamide], the NOAEL with Rattus norvegicus (subchronic, duration: 90 days, oral, diet, M/F, Sprague-Dawley, histopathology: nonneoplastic) was found to be 23.4 mg/kg-day. Take `CCCC(C)=O` [2-Pentanone]: the NOAEL in the data set with Rattus norvegicus (subchronic, duration: 13 weeks, oral, gavage, M/F, organ weight) was 20 mg/kg-day. With `CC1=C(C=O)C(C)(C)CC=C1` [Safranal], the LEL in the data set with Canidae (subchronic, duration: 90 days, Dog Other, no effects) is 120 mg/kg-day; in the data set on Rattus norvegicus (subchronic, duration: 90 days, oral, gavage, F, no effects), 120 mg/kg-day. Besides, the NOEL in the data set on Rattus norvegicus (subchronic, duration: 90 days) came out at 10 mg/kg-day. Regarding `OCCc1ccc(O)c(O)c1` [3,4-Dihydroxyphenylethanol], the NOAEL with Rattus norvegicus (subchronic, duration: 90 days, oral, gavage, M/F, body weight) is 50 mg/kg-day; with Rattus norvegicus (subchronic, duration: 90 days, oral, gavage, Wistar, body weight) it was 250 mg/kg-day. Turning to `CCCCC(CC)COC(=O)c1ccc(N(C)C)cc1` (stereo not drawn) [2-Ethylhexyl 4-(dimethylamino)benzoate], the NOAEL in the data set with Rattus norvegicus (short-term, duration: 4 weeks, M/F, histopathology: nonneoplastic) came out at 100 mg/kg-day. In the data set on Rattus norvegicus (subchronic, duration: 13 weeks, oral, gavage, M/F, Crj:CD, no effects), `NCCS(=O)(=O)[O-].NCCS(=O)(=O)[O-].[Fe+2]` [Iron(II) taurate] yielded an NOAEL of 1000 mg/kg-day. As to `CC(=O)N[C@H]1[C@H](O[C@H]2[C@@H](O)[C@@H](CO)O[C@@H](O[C@H]3[C@H](O)[C@@H](O)C(O)O[C@@H]3CO)[C@@H]2O)O[C@H](CO)[C@@H](O)[C@@H]1O[C@@H]1O[C@H](CO)[C@H](O)[C@H](O)[C@H]1O` (stereo partly drawn) [Lacto-N-tetraose], the NOAEL with Rattus norvegicus (subchronic, duration: 90 days, oral, M/F, Wistar) is 5000 mg/kg-day. In the case of `NC(N)=O` [Urea], the LD50 in the data set with Rattus norvegicus (oral) was 14300 mg/kg-day. For the same molecule, in the data set on Rattus norvegicus (reproduction developmental, reproduction), the NOEL came out at 2250 mg/kg-day.

`O=C(O)c1ccc(C(=O)O)o1` [2,5-Furandicarboxylic acid] had an NOAEL in the data set with Rattus norvegicus (subchronic, duration: 90 days, oral, gavage, M/F, Wistar, body weight) of 300 mg/kg-day. As for `OCc1c[nH]c2ccccc12` [Indole-3-carbinol], in the data set with Rattus norvegicus (chronic, duration: 37 weeks, oral, diet, M, no effects), the no observed adverse effect level (NOAEL) turned out to be 50 mg/kg-day. With `CS(=O)(=O)c1cc(C(F)(F)F)ccc1C(=O)c1cnoc1C1CC1` [Isoxaflutole], the NOAEL in the data set with Oryctolagus sp. (developmental, development) stood at 5 mg/kg-day; with Rattus norvegicus (chronic, duration: 2 years, histopathology: nonneoplastic), 2 mg/kg-day; with Rattus norvegicus (reproduction developmental, organ weight), 2 mg/kg-day. Regarding `Cc1occc1S` [2-Methyl-3-furanthiol], in the data set with Rattus norvegicus (subchronic, duration: 90 days, no effects), the NOAEL amounted to 5 mg/kg-day. In the data set with Rattus norvegicus (setting [2]), `SCc1ccccn1` [2-Pyridinemethanethiol] came in with an NOAEL of 3.4 mg/kg-day. For the molecule `CCC(=O)c1ccc[nH]1` [2-Propionylpyrrole], the no observed adverse effect level (NOAEL) turned out to be 0.048 mg/kg-day in the data set on Rattus norvegicus (subchronic, duration: 90 days, oral, M/F, Sprague-Dawley, histopathology: neoplastic) and 48 mg/kg-day in the data set on Rattus norvegicus (subchronic, duration: 90 days, oral, gavage, M, hematological).

As for `Nc1ccc(Cl)c(Cl)c1` [3,4-Dichloroaniline], in the data set with Colinus virginianus (acute, oral), the LD50 is 99.1 mg/kg-day. `O=C1CCCCCN1` [Caprolactam] showed an NOEL in the data set on Rattus norvegicus (setting [2]) of 750 mg/kg-day. For `Cc1cc2nc3c(=O)[nH]c(=O)nc-3n(C[C@H](O)[C@H](O)[C@H](O)CO)c2cc1C` [Riboflavin], in the data set on Rattus norvegicus (subchronic, duration: 90 days, M/F, Wistar, no effects), the NOAEL was 160 mg/kg-day.

As usually defined, the LC50 is the concentration lethal to half of the exposed cells or organisms. A low value points to a more lethal substance. Broadly, the NOAEL is the highest tested level that showed no adverse finding.
